Patent US8957108B2, “Use of 5,6-dimethylxanthenone-4-acetic acid as an antiviral agent” (University of Maryland, Baltimore, priority 2006, dated 2015)

Experiments:
MEFs = experiment: RANTES protein in MEF supernatants; format: cell-based, mouse; conditions: MAVS+/+ and MAVS−/− MEFs, 24 h
Experimental: IFN-β protein in cell culture supernatants was measured using a custom ELISA originally described in Weinstein, S. L. et al. (2000) “Phosphatidylinositol 3-Kinase And mTOR Mediate Lipopolysaccharide-Stimulated Nitric Oxide Production In Macrophages Via Interferon-Beta,” J. Leukocyte Biol. 67:405-414, with few modifications. […] Plates were blocked with 10% FCS in 1×PBS for 2 h at room temperature. Samples and a murine IFN-β standard (NIH, Bethesda, Md.) were added to wells and incubated overnight at 4° C. […] Wells were washed 3× followed by incubation with a 1:2000 dilution of goat anti-rabbit HRP (Cell Signaling Technologies, Beverly, Mass.) in 10% FCS-PBS for 1 h at room temperature. Plates were washed 3× and developed with TMB substrate (KPL, Gaithersburg, Md.). The reaction was stopped by addition of 1N H2SO4, and plates were read at 450 nm. RANTES and TNF-α were quantified using Luminex bead-based colorimetric assays. […] For stimulation of cells, poly(I:C) was mixed with Fugene 6 transfection reagent (Roche) at a ratio of 1:1 (volume:weight) in OptiMEM medium and incubated for 15 min prior to stimulation. Culture supernatants of cells (2×10^4) seeded on 96-well plates were collected after 24 h stimulation and analyzed for RANTES levels with ELISA. ELISA was performed according to the manufacturer's instructions (R&D Systems).

peritoneal macrophages = experiment: Quantitative real-time PCR of cytokine mRNA in murine peritoneal macrophages
IRF-3 = experiment: Native-PAGE and Western blotting for IRF-3 dimers; format: cell-based, mouse; conditions: macrophages pretreated with SA
Experimental: Rabbit anti-mouse IκBα phospho-specific Ab (pAb) was purchased from Santa Cruz Biotechnology, Inc. (Santa Cruz, Calif.). Rabbit anti-mouse MAPK pAb and rabbit anti-human phospho-IRF-3 pAb antibodies were purchased from Cell Signaling (Danvers, Mass.). Rabbit anti-mouse IRF-3 pAb was purchased from Zymed (South San Francisco, Calif.). Native-PAGE for the detection of IRF-3 dimers was carried out as described in Iwamura, T. et al. (2001) “Induction Of IRF-3/-7 Kinase And NF-kappaB in Response To Double-Stranded RNA And Virus Infection: Common And Unique Pathways,” Genes and Cells 6:375-388. Briefly, thioglycollate-elicited peritoneal macrophages were lysed following stimulation with either LPS or DMXAA as indicated. […] Membranes were probed with a 1:250 dilution of rabbit anti-mouse IRF-3 for 1 h at room temperature. Goat anti-rabbit IgG-HRP (Cell Signaling Technologies, Danvers, Mass.) at a 1:2000 dilution was used as the secondary Ab. Blots were developed with ECL Plus (Amersham Biosciences, Piscataway, N.J.).

[1] = peritoneal macrophages pretreated with SA

poly I:C [reference compound]
RANTES response in MAVS-deficient MEFs (MEFs): completely abrogates | TNF-α mRNA in the absence of TLR4 (peritoneal macrophages; TLR4−/− peritoneal macrophages, 2 h): induces TNF-α to wild-type levels

O=C(O)c1ccccc1O [SA, salicylic acid, reference compound]
IRF-3 dimer formation and phosphorylation of serine 396 in response to DMXAA (IRF-3): inhibits | effect on DMXAA-induced IFN-β expression (peritoneal macrophages; [1]): dramatically reduces | effect on LPS-induced IFN-β mRNA expression (peritoneal macrophages; [1]): essentially unaffected
